Data as given in patent US20140113958A1, “HCV Combination Therapy” (priority 2011, published 2014).
Where “and” joins values, the source holds several entries; their conditions need not be identical. Equal entries are not always repeated. Entries after “also recorded” stand apart in the source; their conditions may differ. Where two headings read alike, the source gives them in different places.

Legend:
Assay type in all cases: cell-based
[1] = test system: HCV genotype Ib replicon (I389luc-ubi-neo/NS3-3′/ET) in Huh-luc/neo-ET cells; conditions: for Efficacy, Antagonism vol / Interaction: second drug in combination with miravirsen (SPC3649); for Efficacy, Antagonism vol: 95% confidence interval, median (≧3 experiments) or individual values; for Interaction: overall
Method: The anti-viral efficacy and cellular toxicity of non-transfected antimiR oligonucleotide in combination with approved and experimental anti-HCV therapeutics (e.g. NM283, 2′-C-methylcytidine, and/or VX-222) (or other NS5B polymerase inhibitors) was determined in the reporter cell line Huh-luc/neo-ET. This cell line harbors the persistently replicating I389luc-ubi-neo/NS3-3′/ET replicon containing the firefly luciferase gene-ubiquitin-neomycin phosphotransferase fusion protein and EMCV IRES driven NS3-5B HCV coding sequences containing the ET tissue culture adaptive mutations (E1202G, T1208I, and K1846T). Eight dilutions of non-transfected antimiR oligonucleotide (bracketing the calculated EC50) were evaluated in triplicate on duplicate sets of three plates with five dilutions of each of the control compounds (bracketing the calculated EC50). One set of plates was used for the determination of cellular toxicity and the other set of plates was used for the determination of anti-viral efficacy. The efficacy and toxicity results was quantified with firefly luciferase activity and XTT dye reduction, respectively, and the results of the assay is imported into the Prichard and Shipman MacSynergy II software program. The MacSynery II analysis includes calculation of the dose response of the two (or more) compounds when used alone followed by calculation of the expected additive level of antiviral inhibition or toxicity when the compounds are used together based on the individual dose response curves. The expected level of activity at each of the concentration data points was compared to the experimentally determined antiviral activity in the assay. The expected activity was subtracted from the realized activity, yielding a negative, zero or positive value. These values are plotted as a three dimensional representation of the data and the result is reported as a two-factor value, expressing the combined average above the expected level of activity (synergy volume) and the combined average below the expected level of activity (antagonism volume). Combination analysis was performed two or more times for each pair of test compound and control substance.
The reporter cell line Huh-luc/neo-ET was obtained from Dr. Ralf Bartenschlager (Department of Molecular Virology, Hygiene Institute, University of Heidelberg, Germany) by ImQuest BioSciences. This cell line harbors the persistently replicating 1389luc-ubi-neo/NS3-3′IET replicon containing the firefly luciferase gene-ubiquitinneomycin phosphotransferase fusion protein and EMCV IRES driven NS3-5B HCV coding sequences containing the ET tissue culture adaptive mutations (E 1202G, T12081, and KI846T). A stock culture of the Huh-luc/neo-ET was expanded by culture in DMEM supplemented with 10% FBS, 2 mM glutamine, penicillin (100 IU/mL)/streptomycin (100 f·Ig/mL) and IX nonessential amino acids plus I mg/ml G418. Prior to plating, the cells were split 1:4 and cultured for two passages in the same medium plus 250 f·Ig/mL G418. The cells were treated with trypsin and enumerated by staining with trypan blue and seeded into 96-well tissue culture plates at a cell culture density 5.0×10^3 cells per well in a volume of 85 f·IL per well and incubated at […] in an environment of 5% CO2 for 24 hours. Six plates were established for the determination of combination efficacy (EC50) and cytotoxicity (TC50) for each of the compound combinations (three plates each for efficacy and toxicity). Following the 24 hour incubation, eight 2-fold serial dilutions of SPC3649 in cell culture medium without G418 were prepared (final in well high test concentration of 1.20 μM to 2.40 μM) and added to the cells and five 2-fold or 5-fold serial dilutions of control compounds in cell culture medium without G418 were prepared and added to the cells.

[2] = test system: HCV genotype 1b replicon NS5B S282T; conditions: EC50 mutant / EC50 wild-type; mean of two experiments (individual values)
Method: The in vitro antiviral of miravirsen was evaluated against wild-type HCV genotype 1b replicon and HCV genotype 1b replicons constructed to contain key amino acid substitutions in NS3 protease (A156T, R155K), NS5B polymerase (S282T, M423I) and NS5A protein (Y93H) in transient transfection assays utilizing Huh 7 cells. […] Huh 7 cells were transfected with either the wild-type or the mutant RNA constructs by electroporation. Luciferase activity was measured 72 hours after compound treatment and EC50 values determined from dose-response curves. Fold resistance was expressed as the ratio of the EC50 for mutant HCV replicon to the EC50 for wild-type HCV replicon.
The in vitro antiviral of miravirsen was evaluated against wild-type HCV genotype 1b replicon and HCV replicons constructed to contain key amino acid substitutions in NS3 protease (A156T, R155K), NS5B polymerase (S282T, M423I) and NS5A protein (Y93H) in transient transfection assays. […] Huh 7 cells were transfected with either the wild type or the mutant RNA constructs by electroporation. Luciferase activity was measured 72 hours after compound treatment and EC50 values determined from dose-response curves. Fold resistance was expressed as the ratio of the EC50 for mutant HCV replicon to the EC50 for wild-type HCV replicon. Results are expressed as the mean of two individual experiments. In an initial set of experiments, the standard protocol was modified by adding compounds 24 hours after electroporation. […] In a third experiment cells were pretreated with miravirsen for 24 hours before electroporation with wild-type RNA constructs to determine if preincubation could result in increased miravirsen antiviral activity.

[3] = test system: Huh-luc/neo-ET HCV genotype Ib replicon cells; conditions: for rate of cell expansion / resistant clonal populations: selection with G418, 28 days; for resistant clonal populations: crystal violet
Method: Cell culture and Assay setup: The reporter cell line Huh-luc/neo-ET was obtained and prepare as described previously. Cells were plated into 10 cm tissue culture dishes at a density of 3×10^5 cells per plate in culture medium containing 250 μg/ml G418 and incubated for 24 hours at 37° C. in an environment of 5% C02. Following the 24 hour incubation, dilutions of SPC3649, SPC4729, or telaprevir were prepared in cell culture medium (as above) with 750 μg/ml G418. Each of the dilutions was added to duplicate plates and the plates were incubated at 37° C. in an environment of 5% CO^2. Two additional plates received cell culture medium with 750 μg/ml G418 as a no-treatment control. […] The final concentration of SPC4729 was 10.0 μM. […] Following 28 days of passage, one set of dishes was stained with crystal violet and the other set of plates was utilized for expansion and establishment of resistant cell culture stocks.
Huh-luc/neo-ET HCY genotype Ib replicon cells were cultured under selective pressure in the presence of 750 μg/mL G4 I8 with and without four independent fixed concentrations of SPC3649 anti-miR oligonucleotide, or telaprevir, or one concentration of scrambled oligonucleotide SPC4729 for 28 days in tissue culture plates. Duplicate tissue culture dishes were established and maintained for each culture condition. Medium was replaced bi-weekly during the 28 days of culture and the cells were split at the time of medium replenishment to maintain a confluent cell culture monolayer. Following four weeks in culture, cells were either fixed with methanol and stained with crystal violet or expanded for subsequent phenotypic and genotypic characterization.

Compound: 5′-^mCs^ocsAs^otstsGs^oTs^ocsas^mCs^oas^mCs^ots^mCs^omC^o-3′ (CCATTGTCACACTCC; all phosphorothioate, sugars by position and methylation of C not given here; further chemistry not fully specified) [miravirsen]
- overall antiviral interaction ([1]; in combination with ribavirin): apparent synergy
- EC50 ([1]; previously reported against stable HCV cell lines, read-out: average EC50): 671 nM
- EC50 ([1]; read-out: EC50 (+/− SD)): 670 nM
- fold change in susceptibility, NS5B S282T [2]: 1.9 (2.6, 1.1) fold
- rate of cell expansion [3]: decrease in the rate of cell expansion
- resistant clonal populations ([3]; listed as SPC3649): failed to produce distinct individual resistant clonal populations; also recorded: distinct individual resistant clonal populations were not produced

Compound: CCC[C@H](NC(=O)[C@@H]1[C@H]2CCC[C@H]2CN1C(=O)[C@@H](NC(=O)[C@@H](NC(=O)c1cnccn1)C1CCCCC1)C(C)(C)C)C(=O)C(=O)NC1CC1 [Telaprevir, (1S,3aR,6aS)-2-[(2S)-2-[[(2S)-2-Cyclohexyl-2-(pyrazine-2-carbonylamino)acetyl]amino]-3,3-dimethylbutanoyl]-N-[(3S)-1-(cyclopropylamino)-1,2-dioxohexan-3-yl]-3,3a,4,5,6,6a-hexahydro-1H-cyclopenta[c]pyrrole-1-carboxamide]
- overall antiviral interaction ([1]; in combination with ribavirin): inconclusive
- Efficacy, Antag Vol ([1]; in combination with ribavirin, 95% confidence level, individual values): 0.00/−200.2 μM^2% and 37.5/−22.6; μM^2%
- Efficacy, Antagonism vol [1]: 0/−3.2 μM^2%
- Efficacy, Antagonism vol ([1]; listed as telaprevir): −3.22 μM^2%
- Interaction [1]: Positive
- Interaction ([1]; listed as telaprevir): positive interaction
- fold change in susceptibility, NS5B S282T [2]: 1.0 (1.0, 1.0) fold
- Cell split ratio ([3]; 1.50 μM plus G418, day 15): N.S.
- Cell split ratio ([3]; 1.50 μM plus G418, day 22): N.S.
- Cell split ratio ([3]; 3.00 μM plus G418, day 15): N.S.
- Cell split ratio ([3]; 3.00 μM plus G418, day 18): N.S.
- Cell split ratio ([3]; 3.00 μM plus G418, day 22): N.S.
- Cell split ratio ([3]; 3.00 μM plus G418, day 25): N.S.
- Cell split ratio ([3]; 6.00 μM plus G418, day 11): N.S.
- Cell split ratio ([3]; 6.00 μM plus G418, day 15): N.S.
- Cell split ratio ([3]; 6.00 μM plus G418, day 18): N.S.
- Cell split ratio ([3]; 6.00 μM plus G418, day 22): N.S.
- Cell split ratio ([3]; 6.00 μM plus G418, day 25): N.S.
- rate of cell expansion [3]: dose-dependent decrease in the rate of cell expansion
- resistant clonal populations [3]: production of distinct individual resistant clonal populations
